Measured values: PubChem BioAssay AID651563 (Sanford-Burnham Center for Chemical Genomics, 2012)
Active and inactive are the calls of the source.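 The calls were made as follows: active = compounds whose IC50 is 20 micromolar or lower, counted as confirmed SKN-1 reporter blockers; inactive = the rest.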

What follows are molecules tested on C. elegans VP596 Pgst-4::GFP/RFP ratio, acrylamide, 24 h (assay: inhibition of acrylamide-induced Pgst-4::GFP reporter, dose response, SKN-1 inhibitor project, whole organism, GFP/RFP fluorescence ratio, set 2, strain VP596 (AID 651563);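 also: red signal is driven by the dop-3 promoter and serves as the normalizer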).
For Clc1ccsc1-c1ccc2ccccc2n1, the IC50 was 20.3 µM (inactive).
Clc1ccc(-c2nnc(-c3ccccc3)o2)c(Cl)c1 showed an IC50 of 1.46 µM.
With Cc1ccc(N=C/C(C(=O)C(F)(F)F)=C(\O)c2ccco2)cc1Cl the IC50 was 14.3 µM.
In the case of CCOc1cc(CNC2CCCC2)cc(Cl)c1OCc1ccccc1, the IC50 is reported as 22.4 µM (inactive).
With c1ccc(-c2csc(-c3ccncc3)n2)cc1 the IC50 was 12.6 µM.
For CCN(CC)c1ccc(/C=C2\C(=O)c3ccc(C(=O)O)cc3C2=O)cc1, the IC50 was 12.2 µM.
In the case of Fc1ccccc1CSc1ccc(-c2ccco2)nn1, the IC50 is reported as > 100 µM (inactive).
For Brc1ccc(-c2nc(-c3ccccc3)no2)o1, the IC50 was 2.54 µM.
For COc1cc(CNC2CCCC2)cc(Cl)c1OCc1ccc(F)cc1, the IC50 was 11.8 µM.
With FCCCOc1ccc(-c2nccc(-c3ccccn3)n2)cc1 the IC50 was 25.6 µM (inactive).
COC(=O)c1c(-c2ccccc2)noc1-c1ccccc1 was tested, and the IC50 was 49.3 µM (inactive).
O=C(c1ccc(Cl)cc1)c1cc([N+](=O)[O-])ccc1N1CCOCC1 was tested, and the IC50 was > 100 µM (inactive).
Clc1ccc(-c2nnc(-c3ccco3)o2)cc1 gave an IC50 of 15.8 µM.
For Cc1oc(-c2ccc(-c3ccccc3)cc2)nc1CN(C)C1CCOC1 (centres undefined), the IC50 was 20.6 µM (inactive).
COc1ccc2c(c1OC)C(=O)OC2Nc1nc(-c2ccc(-c3ccccc3)cc2)cs1 (centres undefined) was tested, and the IC50 was 33.8 µM (inactive).
With O=C(NC(=S)Nc1ccc(CN2CCCCC2)cc1)c1cc2ccccc2o1 the IC50 was 94.9 µM (inactive).
CN1CCN(c2ccc(NC(=O)c3ccc(Oc4ccccc4)cc3)cc2)CC1 showed an IC50 of 12.5 µM.
With Clc1ccc(OCCCc2nc(-c3ccncc3)no2)c(Cl)c1 the IC50 was 29.5 µM (inactive).
With N#Cc1cncc(C#Cc2ccccc2)c1 the IC50 was 31 µM (inactive).
In the case of c1ccc(N2CCN(c3cnc4ccccc4n3)CC2)cc1, the IC50 is reported as > 100 µM (inactive).
With O=C(CC(O)(C(F)(F)F)C(F)(F)F)Nc1ccc(Cl)c(Cl)c1 the IC50 was 27.9 µM (inactive).
In the case of Clc1ccc(C=Cc2ccccn2)c(Cl)c1, the IC50 is reported as 11.9 µM.
For Fc1ccc(-c2csc(Nc3ccccn3)n2)cc1, the IC50 was 7.01 µM.
In the case of Clc1ccc(Cn2cc(Br)cn2)cc1Cl, the IC50 is reported as 30.6 µM (inactive).
O=C(Nc1ccc(Cl)c(Cl)c1)c1ccco1 was tested, and the IC50 was 45.4 µM (inactive).
Fc1ccccc1-c1nc(-c2ccncc2)no1 was tested, and the IC50 was 38.6 µM (inactive).
In the case of COc1ccc2c(c1)OC/C(=C/c1cccs1)C2=O, the IC50 is reported as 16.8 µM.
O=C(/C=C/c1cccs1)c1ccc(Br)cc1 was tested, and the IC50 was 20.8 µM (inactive).
With O=C(Sc1ccc(Cl)cc1)c1ccccn1 the IC50 was > 100 µM (inactive).
Work on O=C(/C=C/Nc1ccc(Br)cc1F)c1ccco1 yielded an IC50 of 2.19 µM.
For Brc1ccc(-c2nc(-c3ccccn3)no2)o1, the IC50 was 35.8 µM (inactive).
CN(C)CC(O)c1ccc(C=Cc2ccc(Cl)cc2)cc1 (centres undefined) was tested, and the IC50 was 18.4 µM.
For N/C(=N\OC(=O)c1cc(Br)ccc1Cl)c1ccccn1, the IC50 was 53.5 µM (inactive).
In the case of O=C(C=Cc1ccccc1)CC(c1ccccc1)N1CCOCC1 (centres undefined), the IC50 is reported as 10.2 µM.
In the case of c1ccc(-c2cnc(-c3ccccc3)nn2)cc1, the IC50 is reported as > 100 µM (inactive).
For O=C(/C=C/Nc1ccc(F)cc1F)c1cccs1, the IC50 was 5.04 µM.
With Cc1ccc(Nc2nc(-c3cccs3)cs2)nc1 the IC50 was 30.2 µM (inactive).
Molecule COc1cc(CNC(C)(C)CO)cc(Br)c1OCc1ccc(Cl)cc1 has an IC50 of 19.7 µM.
With CCc1nc2c(OCc3ccc(C(F)(F)F)cc3)cccn2c1N(C)C(=O)c1ccncc1 the IC50 was 3.57 µM.
Molecule Clc1ccc(C#Cc2cccnc2)cc1 has an IC50 of 19.5 µM.
O=C(/C=C/c1ccco1)Nc1nc(-c2ccccc2)cs1 was tested, and the IC50 was 42.6 µM (inactive).
With Fc1ccc(-c2csc(-c3ccncc3)n2)cc1 the IC50 was 5.86 µM.
For Cc1ccc(NC(=O)c2ccc(F)cc2F)cc1, the IC50 was > 100 µM (inactive).
For CCOC(=O)Nc1nc(-c2ccc(F)cc2F)cs1, the IC50 was 18.1 µM.
With O=C(Nc1nc(-c2ccc(Cl)s2)cs1)c1ccco1 the IC50 was 15.5 µM.
CCN(CC)Cc1ccc(NC(=O)c2sc3cc(Cl)ccc3c2Cl)cc1 showed an IC50 of 13.8 µM.
For CCn1nccc1C(=O)Nc1ccc(Cl)c(Cl)c1, the IC50 was 87.8 µM (inactive).
For CCCCOC(=O)Nc1ccc(N2CCCCC2)cc1, the IC50 was 38.8 µM (inactive).
With COc1cc(SC)ccc1C(=O)Nc1nccs1 the IC50 was > 100 µM (inactive).
In the case of O=C(Nc1ccc(Cl)cn1)c1ccccc1F, the IC50 is reported as 20.6 µM (inactive).
For Cc1nc2ccccc2cc1OCc1ccc(Cl)cc1, the IC50 was > 100 µM (inactive).
In the case of O=c1cc(-c2ccc(F)cc2)oc2ccccc12, the IC50 is reported as 19.2 µM.
With Fc1ccc(Cn2nnc(-c3ccc(CN4CCOCC4)cc3)n2)cc1 the IC50 was 19.9 µM.
O=[N+]([O-])c1ccc(COc2ccc(CN3CCCC3)cc2)cc1 gave an IC50 of 8.62 µM.
O=C(NCc1ccncc1)c1ccc(-c2ccc(F)c(F)c2)c2ccoc12 was tested, and the IC50 was 29.8 µM (inactive).
In the case of O=C(C=Cc1ccco1)c1ccc2ccccc2c1, the IC50 is reported as 31.7 µM (inactive).
For Brc1ccc(-c2nnc(-c3cccnc3)o2)cc1, the IC50 was > 100 µM (inactive).
For Clc1ccc(OCc2nc(-c3ccncc3)no2)c(Br)c1, the IC50 was 31.2 µM (inactive).
O=C(/C=C/c1ccccc1)/C=C/c1ccccc1 showed an IC50 of 16.2 µM.
In the case of Clc1ccc(Nc2nc(-c3cccs3)cs2)nc1, the IC50 is reported as 11.5 µM.
CSc1ccc(-c2cc(=O)c3ccccc3o2)cc1 was tested, and the IC50 was 17.5 µM.
Clc1ccc(Cn2nnc(-c3ccccc3)n2)cc1 was tested, and the IC50 was 20.9 µM (inactive).
For O=C(Nc1nc2c(ccc3ccccc32)s1)c1ccco1, the IC50 was 17.7 µM.
With c1csc(-c2nc(-c3ccncc3)no2)c1 the IC50 was 36.1 µM (inactive).
For COc1c(C(=O)Nc2nccs2)ccc2ccccc12, the IC50 was 41.8 µM (inactive).
In the case of Fc1ccc(Nc2cccc3nccnc23)cc1, the IC50 is reported as 47.2 µM (inactive).
CC/C(=C\c1ccc(Cl)cc1)c1ccncc1 was tested, and the IC50 was 28.2 µM (inactive).
O=C(Nc1ccc(SC(F)F)cc1)c1ccccc1F was tested, and the IC50 was 20.3 µM (inactive).
O=C(C=Cc1cccs1)c1ccc(Cl)s1 was tested, and the IC50 was 17.7 µM.
For c1ccc(-c2ccc(-n3ccnc3)cc2)cc1, the IC50 was 10.6 µM.
For Clc1ccc(OCc2cnc(Cl)s2)cc1, the IC50 was 23.1 µM (inactive).
For Brc1ccc(-c2cn3ccccc3n2)s1, the IC50 was 18.1 µM.
In the case of c1ccc(-c2nc3cc4ccccc4cc3[nH]2)nc1, the IC50 is reported as 16.1 µM.
Molecule Clc1ccc(CSc2ncn(-c3ccccc3)n2)cc1 has an IC50 of 11.2 µM.
O=[N+]([O-])c1ccc(NCc2ccc(Cl)cc2)nc1 showed an IC50 of 18.1 µM.
In the case of C(=C\c1ccc2ccccc2n1)/c1ccccc1, the IC50 is reported as > 100 µM (inactive).
C=CCSc1nnc(-c2ccc(Cl)cc2Cl)o1 was tested, and the IC50 was 25.2 µM (inactive).
Clc1ccc2nc(-c3ccc(Br)s3)cn2c1 was tested, and the IC50 was 21.6 µM (inactive).
Fc1ccc(-c2cnc(-c3cccs3)o2)cc1 was tested, and the IC50 was 27.5 µM (inactive).
Fc1ccc(COc2ccc(-c3nnco3)cc2)cc1 showed an IC50 of 7.45 µM.
In the case of O=C1/C(=C/c2ccccc2)CCCc2ccccc21, the IC50 is reported as 31.6 µM (inactive).
For O=[N+]([O-])c1ccc2nc(N3CCCC3)sc2c1, the IC50 was > 100 µM (inactive).
In the case of O=C(/C=C/c1ccc(Cl)cc1Cl)Nc1ccc(CN2CCOCC2)cc1, the IC50 is reported as > 100 µM (inactive).
O=C(Nc1nccs1)c1ccc2ccccc2n1 showed an IC50 of 15.8 µM.
Clc1ccc(-c2nc3cc(CN4CCCCC4)ccc3o2)cc1 was tested, and the IC50 was 87.7 µM (inactive).
In the case of O=C(Nc1nc(-c2ccc(Cl)s2)cs1)c1cccs1, the IC50 is reported as 6.63 µM.
For Clc1ncc(CSc2ccccc2)s1, the IC50 was > 100 µM (inactive).
With Brc1ccc(CSc2nnc(-c3cccnc3)o2)cc1 the IC50 was 29.1 µM (inactive).
Work on c1ccc(-c2csc(Nc3ccccn3)n2)cc1 yielded an IC50 of 16.8 µM.
